Data from patent US5098933A, “Pharmaceutically useful Michael addition products of unsaturated aldehydes and ketones and ascorbic acid” (Theracel Corporation, priority 1990, dated 1992).
Like-named read-outs stand apart in the source and are kept apart here.

Columns and labels:
[1] = tested on: plaque forming cells, antibody specific to sheep red blood cells; assay: Jerne Hemolytic Plaque Assay; assay type: in vivo, mice
Description: This assay measures the IgM or IgG isotypes of specific antibody produced by antigen used to immunize the mice. […] The direct assay detects IgM and the indirect assay detects IgG-specific antibody.
Washed spleen cells are added to an agarose (FMC, Rockland, Me.) preparation containing sheep red blood cells (SRBC) and guinea pig complement. A drop of this mixture is transferred to a small petri dish; a cover slip is then placed over the drop to flatten it. The agarose prep is allowed to solidify. Then, the dishes are placed in a small humidified changer inside a CO-2 incubator overnight.
Small pinpoint cleared areas (plaques) will be observed under the cover slip. The cleared areas are caused by antibody, specific to the SRBC's being released by stimulated spleen cells and in conjunction with the complement, lyse surrounding SRBC's. These plaque forming cells (PFC's) are counted, and calculations are performed to obtain PFC's per […] spleen cells.
1. Spleens are harvested from mice according to a standard procedure and adjusted to a final concentration of 20% in […].
14. Count and record the number of hemolytic plaques per plate. Average plaque counts between the duplicate sets. Multiply the average number of plaques per group by 2.5 to obtain the number of plaque forming cells per million spleen cells.

[2] = tested on: T- and B- lymphocyte isolated from mouse spleens; assay: Lymphocyte Blastogenesis Assay; assay type: in vivo; settings: for RPMI CONTROL: no mitogen (Table 7); for activation at 25 mg/kg / activation at 50 mg/kg / activation at 100 mg/kg / activation at 12.5 mg/kg / activation at 200 mg/kg: Mus musculus, Lymphocyte; for RPMI: no mitogen (Table 8)
From the text: This assay measures the ability of the compound under test to affect DNA synthesis and mitosis of T- and B- lymphocyte isolated from mouse spleens.
Mitogens are substances which stimulate DNA synthesis and mitosis. The mitogens used in these studies were phytohemaglutinin (PHA) which is isolated from the red kidney bean and concanavalin-A (Con-A) which is isolated form the jack bean. Con-A binds to specific receptors (glycoproteins) containing mannosyl or glycosyl moieties and stimulates all murine T-cells to synthesize DNA, divide, and release lymphokines. Con-A in a soluble form allows distinction between T- and B-cells in the mouse, because although both T- and B-cells can bind 106 molecules of Con-A per cell, only T-cells are stimulated when this lectin is presented in a soluble form. PHA stimulates only subpopulations, T-2 cells, of T-cells in the mouse. Also, Con-A stimulates the production of cytokines such as Interleukin-2 (IL-2). In humans, both T- and B-cells are probably stimulated. The activation of B-cells by PHA may be indirect and mediated by the release of soluble mediators from PHA-activated T-cells.
The lymphocyte blastogenesis test is a method to assess the ability of immunocompetent T- or B-cells to respond to a polyclonal mitogen (i.e. PHA or Con-A) or a specific antigen. It may be performed on lymphocytes obtained from mice treated with immunostimulators in vivo or the entire assay can be performed in vitro. The assay as described below uses minimal doses of polyclonal mitogens to induce blastogenesis (proliferation measure by DNA synthesis), in order to be able to assess the phenomena of amplification.
1. Sacrifice two mice/experimental group by cervical dislocation.
14. […]
15. Include in the experiment a control plate which contains the same cells group as above, but receive a 0.1 ml of media instead of mitogen.
18. After 48 hours all wells receive 0.025 mls of a 0.4 microcurie/ml solution of C-14 methyl thymidine and incubate at 37 C, 5% CO-2 for 18 hours.

Structure (SMILES): O=C1CCCC(C2(O)C(=O)OC3C(O)COC32O)C1 (single isomer, unassigned) [KCBL-A]
- % INCREASE ([1]; 12.5 mg/ml (Table 10)): 100%
- PFC ([1]; 12.5 mg/ml (Table 10)): 112.00 PFC/1 MILLION CELLS
- % INCREASE ([1]; 25 mg/kg (Table 10)): 104%
- PFC ([1]; 25 mg/kg (Table 10)): 115.00 PFC/1 MILLION CELLS
- % INCREASE ([1]; 50 mg/kg (Table 10)): 193%
- PFC ([1]; 50 mg/kg (Table 10)): 165.00 PFC/1 MILLION CELLS
- % INCREASE ([1]; 100 mg/kg (Table 10)): 318%
- PFC ([1]; 100 mg/kg (Table 10)): 235.00 PFC/1 MILLION CELLS
- % INCREASE ([1]; 200 mg/kg (Table 10)): 215%
- PFC ([1]; 200 mg/kg (Table 10)): 177.50 PFC/1 MILLION CELLS
- CON-A 6 ug/ml ([2]; 12.5 mg/kg (Table 7)): 3412.0 counts per minute
- PHA 14 ug/ml ([2]; 12.5 mg/kg (Table 7)): 1450.0 counts per minute
- RPMI CONTROL ([2]; 12.5 mg/kg): 94.0 counts per minute
- CON-A 6 ug/ml ([2]; 25.0 mg/kg (Table 7)): 5657.0 counts per minute
- PHA 14 ug/ml ([2]; 25.0 mg/kg (Table 7)): 2178.0 counts per minute
- RPMI CONTROL ([2]; 25.0 mg/kg): 77.0 counts per minute
- CON-A 6 ug/ml ([2]; 50.0 mg/kg (Table 7)): 5059.0 counts per minute
- PHA 14 ug/ml ([2]; 50.0 mg/kg (Table 7)): 2369.0 counts per minute
- RPMI CONTROL ([2]; 50.0 mg/kg): 50.0 counts per minute
- CON-A 6 ug/ml ([2]; 100.0 mg/kg (Table 7)): 4104.0 counts per minute
- PHA 14 ug/ml ([2]; 100.0 mg/kg (Table 7)): 2384.0 counts per minute
- RPMI CONTROL ([2]; 100.0 mg/kg): 76.0 counts per minute
- activation at 25 mg/kg ([2]; 25.0 mg/kg (Table 7), read-out: % INCREASE (CON-A 6 ug/ml)): 56.6%
- activation at 25 mg/kg ([2]; 25.0 mg/kg (Table 7), read-out: % INCREASE (PHA 14 ug/ml)): 26.1%
- activation at 50 mg/kg ([2]; 50.0 mg/kg (Table 7), read-out: % INCREASE (CON-A 6 ug/ml)): 40%
- activation at 50 mg/kg ([2]; 50.0 mg/kg (Table 7), read-out: % INCREASE (PHA 14 ug/ml)): 37.1%
- activation at 100 mg/kg ([2]; 100.0 mg/kg (Table 7), read-out: % INCREASE (CON-A 6 ug/ml)): 13.6%
- activation at 100 mg/kg ([2]; 100.0 mg/kg (Table 7), read-out: % INCREASE (PHA 14 ug/ml)): 38%

Structure (SMILES): O=C1CCCC(C2(O)C(=O)OC3C(O)COC32O)C1 (single isomer, unassigned) [KCBL-B]
- % INCREASE ([1]; 25 mg/kg (Table 10)): 39%
- PFC ([1]; 25 mg/kg (Table 10)): 66.25 PFC/1 MILLION CELLS
- % INCREASE ([1]; 50 mg/kg (Table 10)): 218%
- PFC ([1]; 50 mg/kg (Table 10)): 151.25 PFC/1 MILLION CELLS
- % INCREASE ([1]; 100 mg/kg (Table 10)): 232%
- PFC ([1]; 100 mg/kg (Table 10)): 157.5 PFC/1 MILLION CELLS
- % INCREASE ([1]; 200 mg/kg (Table 10)): 171%
- PFC ([1]; 200 mg/kg (Table 10)): 128.75 PFC/1 MILLION CELLS
- CON-A 2.25 ug/ml ([2]; 12.5 mg/kg (Table 8)): 865.6 counts per minute
- PHA 14.0 ug/ml ([2]; 12.5 mg/kg (Table 8)): 1733.1 counts per minute
- RPMI ([2]; 12.5 mg/kg): 67.6 counts per minute
- CON-A 2.25 ug/ml ([2]; 25 mg/kg (Table 8)): 1309.6 counts per minute
- PHA 14.0 ug/ml ([2]; 25 mg/kg (Table 8)): 3512.1 counts per minute
- RPMI ([2]; 25 mg/kg): 84.3 counts per minute
- CON-A 2.25 ug/ml ([2]; 50 mg/kg (Table 8)): 1130.6 counts per minute
- PHA 14.0 ug/ml ([2]; 50 mg/kg (Table 8)): 2540.7 counts per minute
- RPMI ([2]; 50 mg/kg): 56.2 counts per minute
- CON-A 2.25 ug/ml ([2]; 100 mg/kg (Table 8)): 1736.7 counts per minute
- PHA 14.0 ug/ml ([2]; 100 mg/kg (Table 8)): 3515.4 counts per minute
- RPMI ([2]; 100 mg/kg): 84.9 counts per minute
- CON-A 2.25 ug/ml ([2]; 200 mg/kg (Table 8)): 2008.0 counts per minute
- PHA 14.0 ug/ml ([2]; 200 mg/kg (Table 8)): 3305.8 counts per minute
- RPMI ([2]; 200 mg/kg): 52.0 counts per minute
- activation at 12.5 mg/kg ([2]; 12.5 mg/kg (Table 8), read-out: % INCREASE (CON-A 2.25 ug/ml)): 123%
- activation at 12.5 mg/kg ([2]; 12.5 mg/kg (Table 8), read-out: % INCREASE (PHA 14.0 ug/ml)): 12.1%
- activation at 25 mg/kg ([2]; 25 mg/kg (Table 8), read-out: % INCREASE (CON-A 2.25 ug/ml)): 237%
- activation at 25 mg/kg ([2]; 25 mg/kg (Table 8), read-out: % INCREASE (PHA 14.0 ug/ml)): 127%
- activation at 50 mg/kg ([2]; 50 mg/kg (Table 8), read-out: % INCREASE (CON-A 2.25 ug/ml)): 191%
- activation at 50 mg/kg ([2]; 50 mg/kg (Table 8), read-out: % INCREASE (PHA 14.0 ug/ml)): 64.4%
- activation at 100 mg/kg ([2]; 100 mg/kg (Table 8), read-out: % INCREASE (CON-A 2.25 ug/ml)): 347%
- activation at 100 mg/kg ([2]; 100 mg/kg (Table 8), read-out: % INCREASE (PHA 14.0 ug/ml)): 128%
- activation at 200 mg/kg ([2]; 200 mg/kg (Table 8), read-out: % INCREASE (CON-A 2.25 ug/ml)): 418%
- activation at 200 mg/kg ([2]; 200 mg/kg (Table 8), read-out: % INCREASE (PHA 14.0 ug/ml)): 114%

Structure (SMILES): O=C1CCC(C2(O)C(=O)OC3C(O)COC32O)C1 (single isomer, unassigned) [L-KCPBL-A]
- % INCREASE ([1]; 25 mg/kg (Table 12)): 233%
- PFC ([1]; 25 mg/kg (Table 12)): 162.5 PFC/1 MILLION CELLS
- % INCREASE ([1]; 50 mg/kg (Table 12)): 151%
- PFC ([1]; 50 mg/kg (Table 12)): 122.5 PFC/1 MILLION CELLS
- % INCREASE ([1]; 100 mg/kg (Table 12)): 120%
- PFC ([1]; 100 mg/kg (Table 12)): 107.5 PFC/1 MILLION CELLS
- % INCREASE ([1]; 200 mg/kg (Table 12)): 202%
- PFC ([1]; 200 mg/kg (Table 12)): 147.5 PFC/1 MILLION CELLS
- antibody production / PFC, dose dependence ([1]; vs control): stimulates T-dependent antibody production, but not in a dose response fashion
